According to PubChem BioAssay AID179 (DTP/NCI, 2004):
Where “and” joins values, the source holds several entries; their conditions need not be identical. Equal entries are not always repeated. Calls of active or inactive are those of the source.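 Rule for the calls: active = compounds giving half or more protection of infected cells from virus-caused growth loss, again on retest; inactive = the rest.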

Tested on: CEM cells HIV-1 protection, formazan growth assay
Test: NCI AIDS Antiviral Assay
Details: for IC50: measured here: growth of uninfected CEM cells
Outline: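 Human CEM cells, uninfected and HIV-1-infected, exposed to five drug concentrations; growth measured by soluble formazan assay and scored as percent protection from infection, with protecting compounds retested.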

Compound | EC50 | IC50 | outcome
O=c1oc2ccccc2c2nc3ccc(Cl)cc3cc12 | > 200 µM | 5.13 µM | 
CCOC(=O)NC(=O)c1cn(CCCCCCCCCCC(=O)NCCCN2CCN(CCCNC(=O)CCCCCCCCCCn3cc(C(=O)NC(=O)OCC)c(=O)[nH]c3=O)CC2)c(=O)[nH]c1=O |  |  | inactive
Cc1ccc(Sc2ccc(C)cc2[N+](=O)[O-])c([N+](=O)[O-])c1 | > 97.7 µM | > 97.7 µM | 
NC(=O)NNc1nc2ccccc2c(=O)n1NC(=O)C(=O)Nc1ccc(Cl)cc1Cl | > 79.4 µM | > 79.4 µM | 
COc1ccc(C(CC(=O)c2cccs2)C(=O)c2ccc3c(c2)OCO3)cc1 (stereo not drawn) | > 200 µM | 102 µM | 
O=C1CN(CCc2ccccc2)CC(=O)N2C(c3ccccc3)CCCN12 (stereo not drawn) |  |  | inactive
CCOC(=O)/C(=C/c1ccc(N(C)C)cc1)C(=O)c1ccccc1 | > 8.51 µM | > 8.51 µM | 
Cc1c(N=O)cc(C(C)C)c(O)c1I | > 200 µM | 27.5 µM | 
OCc1ccc(C2CC(c3ccco3)=NN2c2ccccc2)o1 (stereo not drawn) | > 17 µM | > 17 µM | 
O=C1CC(c2cccc(Cl)c2)n2cccc21 (stereo not drawn) | > 200 µM | 93.3 µM | 
COc1ccc(-c2coc3c4c(c(CC=C(C)C)c(O)c3c2=O)OC(C)(C)C=C4)cc1OC | > 100 µM | > 100 µM | 
O=C(NC(=O)c1c(F)cccc1F)Nc1ncc(Br)cc1Br | > 200 µM | > 200 µM | 
COC(=O)NCC(OCc1cc2c(cc1I)OCO2)C1=CCCCC1 (stereo not drawn) | > 29.5 µM | > 29.5 µM | 
Fc1ccc2c(c1)SC1Oc3ccccc3-c3c1c-2nn3-c1ccccc1 (stereo not drawn) | > 19.5 µM | > 19.5 µM | 
CC(=O)/C(=C/n1c(=S)sc2ccccc21)C(=O)Nc1ccc([N+](=O)[O-])cc1 | > 129 µM | 95.5 µM | 
CC/C=C\C/C=C\C/C=C\CCCCCCCC(=O)NC(CCC(N)=O)C(=O)O (stereo not drawn) | > 200 µM | 43.7 µM | 
CC(C)(O)CCC(O)[C@](C)(O)C1CCC2(O)C3=CC(=O)[C@@H]4C[C@@H](O)[C@@H](O)C[C@]4(C)C3CC[C@]12C (stereo partly drawn) |  |  | inactive

Compound | EC50 | IC50 | outcome
COc1ccc(CN(Cc2ccc(OC)cc2)C(=O)CC2(O)C=CCC2)cc1 (stereo not drawn) | > 200 µM | 75.9 µM | 
CCOC(=O)c1cc2c(nc1NCc1ccc(OC)c(OC)c1)/C(=C/c1ccccc1)CCCC2 | > 200 µM | 10.2 µM | 
CC(=O)c1ccc(OCC(O)CO)cc1 (stereo not drawn) | > 617 µM | > 617 µM | 
O=C(Nc1c(Cl)cc([N+](=O)[O-])cc1Cl)C(=O)C(C(=O)c1ccncc1)C1OC(=O)c2ccccc21 (stereo not drawn) |  |  | inactive
CC(=O)OCC1OC(n2c(=S)n(-c3ccc([N+](=O)[O-])cc3)c(=O)c3ccccc32)C(OC(C)=O)C(OC(C)=O)C1OC(C)=O (stereo not drawn) | > 29.5 µM | > 29.5 µM | 
CC(C)(C)N1CC1CNC(=O)C(=O)NCC1CN1C(C)(C)C (stereo not drawn) | > 200 µM | 1.35 µM | 
COc1cc(C2SCC(=O)N2c2ccc(-n3c(-c4ccccc4)nc4ccccc4c3=O)cc2)cc(OC)c1OC (stereo not drawn) | > 200 µM | 178 µM | 
CC(=O)C(C(=O)C(=O)Nc1cc(Cl)c(Cl)cc1Cl)c1csc(N)n1 (stereo not drawn) | > 229 µM | > 229 µM | 
N#Cc1ccccc1CSc1ncnc2nc[nH]c12 | 12.3 µM | 105 µM | 
Cc1cc2c(cc1Cl)SC(C(=O)c1ccc(Cl)c(Cl)c1)=NS2(=O)=O |  |  | inactive
CC(=O)Oc1ccc2ccccc2c1Br | > 200 µM | 112 µM | 
C[P+]1(c2ccccc2)CCC(N)=C(C#N)C1 (stereo not drawn) | > 1070 µM | > 1070 µM | 
Cc1cn(C2CC(N=[N+]=[N-])C(COC(=O)CCOCCCCCCCCN=[N+]=[N-])O2)c(=O)[nH]c1=O (stereo not drawn) | 0.00631 µM | 64.6 µM | 
CC1CC[P+](c2ccccc2)(c2ccccc2)c2c1ccc1ccccc21 (stereo not drawn) | > 17.8 µM | 0.741 µM | 
CC1(C)CCCC2C1=NOC2O (stereo not drawn) | > 1480 µM | > 1480 µM | 
C=C1C(=O)[C@@]23C(O)C[C@@H]4C(C)(C)CCCC4(COC(C)=O)[C@@H]2[C@@H](O)C[C@@H]1[C@H]3O (stereo partly drawn) | > 631 µM | 1.95 µM and 1.02 µM | 
Nc1nc(Cl)cc(NCC2(CO)CC(O)C2)n1 (stereo not drawn) | > 200 µM | > 200 µM | 
